Assay [1] has as its system RAW264.7. The experiment in a line: Antiinflammatory activity against mouse RAW264.7 cells assessed as LPS-induced INOS mRNA expression at 10 uM preincubated for 3 hrs followed by LPS-stimulation and measured after 24 hrs by RT-PCR analysis (reference value: 8.2). It is filed as functional.
For assay [2], the system named is RAW264.7. Kind of assay: Antiinflammatory activity against mouse RAW264.7 cells assessed as LPS-induced INOS mRNA expression at 5 uM preincubated for 3 hrs followed by LPS-stimulation and measured after 24 hrs by RT-PCR analysis (reference value: 8.2). The class given is functional.
In assay [3] the test system is RAW264.7. The experiment in a line: Trans-suppression of NFkappaB in mouse RAW264.7 cells assessed as LPS-induced cytosol-p65 level at 2.5 uM preincubated for 3 hrs followed by LPS-stimulation and measured after 1 hr by Western blot analysis (reference value: 0.09). The class given is cell-based. A general note: Immunoblotting shows a protein as a band on a membrane.

The subject of assay [4] is RAW264.7. The experiment in a line: Inhibition of LPS-induced JNK protein expression in mouse RAW264.7 cell at 5 uM preincubated for 3 hrs followed by LPS-stimulation and measured after 1 hr by Western blot analysis (reference value: 1.21). It is filed as functional.
Assay [5] has as its system RAW264.7. The experiment in a line: Inhibition of LPS-induced p38 MAPK protein expression in mouse RAW264.7 cell at 5 uM preincubated for 3 hrs followed by LPS-stimulation and measured after 1 hr by Western blot analysis (reference value: 1.1). It is filed as functional.
Assay [6] concerns RAW264.7. The experiment in a line: Antiinflammatory activity against mouse RAW264.7 cells assessed as LPS-induced COX-2 mRNA expression at 10 uM preincubated for 3 hrs followed by LPS-stimulation and measured after 24 hrs by RT-PCR analysis (reference value: 14.39). The class given is functional.
In assay [7] the target is T1, MAP kinase p38 (Mus musculus) (UniProt P47811+O08911+Q9WUI1+Q9Z1B7). The experiment in a line: Inhibition of LPS-induced p38 MAPK phosphorylation in mouse RAW264.7 cell at 5 uM preincubated for 3 hrs followed by LPS-stimulation and measured after 1 hr by Western blot analysis (reference value: 5.59). The class given is cell-based.
In assay [8] the test system is RAW264.7. The experiment in a line: Trans-suppression of NFkappaB in mouse RAW264.7 cells assessed as LPS-induced cytosol-p50 level at 5 uM preincubated for 3 hrs followed by LPS-stimulation and measured after 1 hr by Western blot analysis (reference value: 0.28). It is filed as cell-based.
The test system of assay [9] is RAW264.7. The experiment in a line: Inhibition of LPS-induced JNK protein expression in mouse RAW264.7 cell at 10 uM preincubated for 3 hrs followed by LPS-stimulation and measured after 1 hr by Western blot analysis (reference value: 1.21). The class given is functional.
Assay [10] relates to RAW264.7. Kind of assay: Trans-suppression of NFkappaB in mouse RAW264.7 cells assessed as LPS-induced nuclear-p50 level at 5 uM preincubated for 3 hrs followed by LPS-stimulation and measured after 1 hr by Western blot analysis (reference value: 3.2). The class given is cell-based.
Assay [11] deals with RAW264.7. The experiment in a line: Trans-suppression of NFkappaB in mouse RAW264.7 cells assessed as LPS-induced IKB-apha phosphorylation at 5 uM preincubated for 3 hrs followed by LPS-stimulation and measured after 1 hr by Western blot analysis (reference value: 6.04). The class given is cell-based.
The subject of assay [12] is RAW264.7. Kind of assay: Trans-suppression of NFkappaB in mouse RAW264.7 cells assessed as LPS-induced cytosol-p65 level at 5 uM preincubated for 3 hrs followed by LPS-stimulation and measured after 1 hr by Western blot analysis (reference value: 0.09). The class given is cell-based.
The subject of assay [13] is RAW264.7. Kind of assay: Antiinflammatory activity against mouse RAW264.7 cells assessed as inhibition of LPS-induced NO production preincubated for 3 hrs followed by LPS-stimulation and measured after 24 hrs by Griess reagent based assay. The class given is functional, cell-based. In general terms: The Griess reaction detects nitrite, a stable product of nitric oxide.

Assay [14] has as its system RAW264.7. Kind of assay: Antiinflammatory activity against mouse RAW264.7 cells assessed as reduction in LPS-induced IL-1beta mRNA expression preincubated for 3 hrs followed by LPS-stimulation and measured after 12 hrs by RT-PCR analysis. It is filed as functional, cell-based.
The subject of assay [15] is RAW264.7. Kind of assay: Trans-suppression of NFkappaB in mouse RAW264.7 cells assessed as LPS-induced IKB-apha degradation at 5 uM preincubated for 3 hrs followed by LPS-stimulation and measured after 1 hr by Western blot analysis (reference value: 0.29). The class given is cell-based.
Assay [16] concerns RAW264.7. Kind of assay: Trans-suppression of NFkappaB in mouse RAW264.7 cells assessed as LPS-induced nuclear-p65 level at 5 uM preincubated for 3 hrs followed by LPS-stimulation and measured after 1 hr by Western blot analysis (reference value: 3.3). The class given is cell-based.
The target of assay [17] is T1, MAP kinase p38 (Mus musculus). Kind of assay: Inhibition of LPS-induced p38 MAPK phosphorylation in mouse RAW264.7 cell at 2.5 uM preincubated for 3 hrs followed by LPS-stimulation and measured after 1 hr by Western blot analysis (reference value: 5.59). The class given is cell-based.
Assay [18] deals with RAW264.7. The experiment in a line: Antiinflammatory activity against mouse RAW264.7 cells assessed as LPS-induced INOS mRNA expression at 2.5 uM preincubated for 3 hrs followed by LPS-stimulation and measured after 24 hrs by RT-PCR analysis (reference value: 8.2). It is filed as functional.
The subject of assay [19] is RAW264.7. The experiment in a line: Inhibition of LPS-induced ERK protein expression in mouse RAW264.7 cell at 10 uM preincubated for 3 hrs followed by LPS-stimulation and measured after 1 hr by Western blot analysis (reference value: 1.13). The class given is functional.
In assay [20] the test system is RAW264.7. Kind of assay: Inhibition of LPS-induced ERK protein expression in mouse RAW264.7 cell at 2.5 uM preincubated for 3 hrs followed by LPS-stimulation and measured after 1 hr by Western blot analysis (reference value: 1.13). It is filed as functional.
Assay [21] relates to RAW264.7. The experiment in a line: Antiinflammatory activity against mouse RAW264.7 cells assessed as reduction in LPS-induced IL6 mRNA expression preincubated for 3 hrs followed by LPS-stimulation and measured after 12 hrs by RT-PCR analysis. It is filed as functional, cell-based.
Assay [22] relates to RAW264.7. The experiment in a line: Inhibition of LPS-induced JNK phosphorylation in mouse RAW264.7 cell at 5 uM preincubated for 3 hrs followed by LPS-stimulation and measured after 1 hr by Western blot analysis (reference value: 8.88). The class given is cell-based.
Assay [23] relates to RAW264.7. The experiment in a line: Inhibition of LPS-induced ERK phosphorylation in mouse RAW264.7 cell at 5 uM preincubated for 3 hrs followed by LPS-stimulation and measured after 1 hr by Western blot analysis (reference value: 6.92). It is filed as cell-based.

Turning to `COc1cc(OC)c2c(O)c3c(=O)cc(C)oc3c(-c3c(O)cc4cc(O)c5c(=O)cc(C)oc5c4c3OC)c2c1` (atropisomer aS) [ASPERPYRONE A], the “fold change (FC)” value in [1] was 1.03; in assay [2], 2.62; in [3], 0.42; in [4], 1.16; in assay [5] it was 0.98; in assay [6], 3.69. Also, the fold change (FC) was 5.63 in assay [7]; 0.87 in [8]; 1.19 in assay [9]; 1.28 in [10]; 3.21 in [11]; 0.78 in assay [12]. Also, the fold change (FC) is 0.68 in assay [15]; 2.57 in assay [16]; 5.63 in assay [17]; 8.48 in assay [18]; 1.1 in assay [19]; 1.08 in [20]. The figures for the fold change (FC) in assay [22] and in assay [23] were 4.02 and 7.31, respectively. Further, the Activity entry in [13], in [14] and in assay [21] was “Dose-dependent effect” throughout. For the same compound, the concentration for half-maximal inhibition (IC50) (usually the concentration needed to halve the response being measured) in [13] was 8.6 µM.

These data come from ChEMBL document CHEMBL4610081, “Anti-inflammatory Metabolites from Chaetomium nigricolor” (J Nat Prod, 2020).
